Experimental data from ChEMBL document CHEMBL3091436, “4-Bicyclic heteroaryl-piperidine derivatives as potent, orally bioavailable Stearoyl-CoA desaturase-1 (SCD1) inhibitors. Part 1: urea-based analogs” (Bioorg Med Chem Lett, 2013).

Experiments:
[1] = biological target: T1, Acyl-CoA desaturase 1 (Rattus norvegicus) (UniProt P07308); assay: Inhibition of SCD1 in Sprague-Dawley rat liver microsomes using Stearoyl-[9,10-3H]-CoA as substrate assessed as [3H2O] generation at 1 uM
T1 sequence (whole entry): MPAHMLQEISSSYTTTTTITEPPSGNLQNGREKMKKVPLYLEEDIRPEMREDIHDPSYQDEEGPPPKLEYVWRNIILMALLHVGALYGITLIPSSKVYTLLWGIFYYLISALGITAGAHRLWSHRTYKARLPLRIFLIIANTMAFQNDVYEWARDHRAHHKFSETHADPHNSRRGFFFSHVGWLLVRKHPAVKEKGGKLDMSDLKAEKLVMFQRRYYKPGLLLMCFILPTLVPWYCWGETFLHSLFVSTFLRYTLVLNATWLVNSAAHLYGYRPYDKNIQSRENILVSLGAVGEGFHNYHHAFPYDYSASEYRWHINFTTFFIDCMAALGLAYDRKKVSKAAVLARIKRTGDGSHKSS

[2] = biological target: T2, Stearoyl-CoA desaturase (Homo sapiens) (UniProt O00767); assay: Inhibition of SCD1 in human A431 cells assessed as conversion of 13C-palmitic acid to 13C-palmitoleic acid after 4 hrs by LC/MS analysis; format: cell-based; conditions: A-431
T2 sequence (whole entry): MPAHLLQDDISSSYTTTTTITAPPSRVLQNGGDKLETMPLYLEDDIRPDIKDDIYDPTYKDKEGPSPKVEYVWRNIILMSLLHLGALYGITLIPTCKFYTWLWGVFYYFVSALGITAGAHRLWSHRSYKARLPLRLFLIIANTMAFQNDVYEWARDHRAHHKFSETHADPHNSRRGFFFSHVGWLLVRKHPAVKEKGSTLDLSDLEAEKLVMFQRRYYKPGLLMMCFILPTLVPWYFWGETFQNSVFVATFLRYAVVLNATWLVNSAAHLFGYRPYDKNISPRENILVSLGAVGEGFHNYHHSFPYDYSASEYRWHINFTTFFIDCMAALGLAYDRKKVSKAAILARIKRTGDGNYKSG

Mus musculus [3] = assay: Hepatotoxicity in DIO C57BL/6 mouse assessed as plasma AST level at 30 mg/kg, po bid after 10 days (reference value: 99 +/- 9 U/L); format: toxicity, organism-based; set-up: dose 30 mg/kg, route oral; conditions: in vivo, 240 h
Mus musculus [4] = assay: Hepatotoxicity in DIO C57BL/6 mouse assessed as plasma AST level at 30 mg/kg, po qd after 10 days (reference value: 99 +/- 9 U/L); format: toxicity, organism-based; set-up: dose 30 mg/kg, route oral; conditions: in vivo, 240 h
[5] = Cmax in DIO mouse at 30 mg/kg, po; format: ADME, organism-based; set-up: dose 30 mg/kg, route oral; conditions: in vivo
[6] = Clearance in rat at 10 mg/kg, po; format: ADME, organism-based; set-up: dose 10 mg/kg, route oral; conditions: in vivo
[7] = Cmax in rat at 10 mg/kg, po; format: ADME, organism-based; set-up: dose 10 mg/kg, route oral; conditions: in vivo
Mus musculus [8] = assay: Hepatotoxicity in DIO C57BL/6 mouse assessed as plasma AST level at 10 mg/kg, po qd after 10 days (reference value: 99 +/- 9 U/L); format: toxicity, organism-based; set-up: dose 10 mg/kg, route oral; conditions: in vivo, 240 h
[9] = Oral bioavailability in rat at 10 mg/kg; format: ADME, organism-based; conditions: in vivo
[10] = Half life in rat at 2 mg/kg, iv; format: ADME, organism-based; set-up: dose 2 mg/kg, route intravenous; conditions: in vivo
[11] = Half life in DIO mouse at 30 mg/kg, po; format: ADME, organism-based; set-up: dose 30 mg/kg, route oral; conditions: in vivo
[12] = AUC (24 hrs) in rat at 10 mg/kg, po; format: ADME, organism-based; set-up: time < 24 hr, dose 10 mg/kg, route oral; conditions: plasma
[13] = Half life in rat at 10 mg/kg, po; format: ADME, organism-based; set-up: dose 10 mg/kg, route oral; conditions: in vivo
[14] = AUC (24 hrs) in DIO mouse at 30 mg/kg, po; format: ADME, organism-based; set-up: time < 24 hr, dose 30 mg/kg, route oral; conditions: plasma
Mus musculus [15] = assay: Antiobesity activity in DIO C57BL/6 mouse assessed as decrease in body weight gain at 30 mg/kg, po qd (reference value: 2.06 +/- 0.33 g); format: functional
Mus musculus [16] = assay: Antiobesity activity in po dosed DIO C57BL/6 mouse assessed as decrease in body weight gain administered as qd/bid; format: functional, organism-based
Mus musculus [17] = assay: Antiobesity activity in DIO C57BL/6 mouse assessed as decrease in body weight gain at 10 mg/kg, po qd (reference value: 2.06 +/- 0.33 g); format: functional
Mus musculus [18] = assay: Hepatotoxicity in DIO C57BL/6 mouse assessed as plasma ALT level at 10 mg/kg, po qd after 10 days (reference value: 58 +/- 5 U/L); format: toxicity, organism-based; set-up: dose 10 mg/kg, route oral; conditions: in vivo, 240 h
[19] = Cmax in rat at 2 mg/kg, iv; format: ADME, organism-based; set-up: dose 2 mg/kg, route intravenous; conditions: in vivo
Mus musculus [20] = assay: Hepatotoxicity in DIO C57BL/6 mouse assessed as plasma ALT level at 30 mg/kg, po qd after 10 days (reference value: 58 +/- 5 U/L); format: toxicity, organism-based; set-up: dose 30 mg/kg, route oral; conditions: in vivo, 240 h
Mus musculus [21] = assay: Antiobesity activity in DIO C57BL/6 mouse assessed as decrease in body weight gain at 30 mg/kg, po bid (reference value: 2.06 +/- 0.33 g); format: functional
Mus musculus [22] = assay: Hepatotoxicity in DIO C57BL/6 mouse assessed as plasma ALT level at 30 mg/kg, po bid after 10 days (reference value: 58 +/- 5 U/L); format: toxicity, organism-based; set-up: dose 30 mg/kg, route oral; conditions: in vivo, 240 h
[23] = AUC (24 hrs) in rat at 2 mg/kg, iv; format: ADME, organism-based; set-up: time < 24 hr, dose 2 mg/kg, route intravenous; conditions: plasma
[24] = Volume of distribution at steady state in rat at 2 mg/kg, iv; format: ADME, organism-based; set-up: dose 2 mg/kg, route intravenous; conditions: in vivo, read-out: Vdss
Acyl-CoA desaturase 1 = biological target: T3, Acyl-CoA desaturase 1 (Rattus norvegicus, UniProt P07308); assay: Inhibition of SCD1 in Sprague-Dawley rat liver microsomes using Stearoyl-[9,10-3H]-CoA as substrate assessed as [3H2O] generation
T3 sequence (P07308 whole entry): T1 sequence (whole entry)

CNC(=O)c1cccc(NC(=O)N2CCC(c3c[nH]c4ccccc34)CC2)c1
inhibition [1]: 15%

Cc1csc(NC(=O)N2CCC(c3noc4ccc(F)cc34)CC2)n1
IC50 [2]: 54 nM | Activity (Mus musculus [3]): 102 U/L | Activity (Mus musculus [4]): 93 U/L | Cmax [5]: 14900 ng/mL | CL/F [6]: 0.5 mL/min/kg | Cmax [7]: 8800 ng/mL | Activity (Mus musculus [8]): 89 U/L | bioavailability [9]: 36.9% | half-life [10]: 3.8 h | half-life [11]: 3.1 h | AUC at 24 h [12]: 118 µg·h/mL | half-life [13]: 6.3 h | AUC at 24 h [14]: 169 µg·h/mL | Activity (Mus musculus [15]): 0.01 g | Activity (Mus musculus [16]): Dose-dependent effect | Activity (Mus musculus [17]): 0 g | Activity (Mus musculus [18]): 57 U/L | Cmax [19]: 9200 ng/mL | Activity (Mus musculus [20]): 68 U/L | Activity (Mus musculus [21]): -0.69 g | Activity (Mus musculus [22]): 41 U/L | AUC at 24 h [23]: 49.8 µg·h/mL | Vd [24]: 0.19 L/kg

O=C(Nc1nc2c(s1)CC(O)CC2)N1CCC(N2CCc3ccc(F)cc32)CC1 (stereo not given)
IC50 [2]: 1 nM | IC50 (Acyl-CoA desaturase 1): 14 nM

CNC(=O)c1csc(NC(=O)N2CCC(N3CCc4ccc(F)cc43)CC2)n1
inhibition [1]: 20%

O=C1NCCn2nc(NC(=O)N3CCC(N4CCc5ccc(F)cc54)CC3)cc21
IC50 [2]: 30 nM | IC50 (Acyl-CoA desaturase 1): 18 nM

O=C(CO)N1CCc2nc(NC(=O)N3CCC(N4CCc5ccc(F)cc54)CC3)sc2C1
IC50 [2]: 113 nM

CNC(=O)c1cccc(NC(=O)N2CCC(N3C(=O)Cc4ccccc43)CC2)c1
inhibition [1]: 7%

O=C(Nc1nc(CO)cs1)N1CCC(N2CCc3ccc(F)cc32)CC1
IC50 [2]: 42 nM

CNC(=O)c1cnc(NC(=O)N2CCC(N3CCc4ccc(F)cc43)CC2)s1
IC50 [2]: 206 nM

NC(=O)c1cnc(NC(=O)N2CCC(N3CCc4ccc(F)cc43)CC2)s1
IC50 [2]: 49 nM

O=C(Nc1nc2c(s1)COCC2)N1CCC(N2CCc3ccc(F)cc32)CC1
IC50 [2]: 17 nM

O=C(Nc1nc2c(s1)CNCC2)N1CCC(N2CCc3ccc(F)cc32)CC1
IC50 [2]: 16 nM

Cc1csc(NC(=O)N2CCC(N3CCc4ccccc43)CC2)n1
IC50 (Acyl-CoA desaturase 1): 153 nM

Cc1csc(NC(=O)N2CCC(n3ccc4ccccc43)CC2)n1
IC50 (Acyl-CoA desaturase 1): 538 nM

O=C(Nc1ncc(CO)s1)N1CCC(N2CCc3ccc(F)cc32)CC1
IC50 [2]: 154 nM

CC(=O)N1CCc2nc(NC(=O)N3CCC(N4CCc5ccc(F)cc54)CC3)sc2C1
inhibition [1]: 46%

O=C(Nc1nc(CCO)cs1)N1CCC(N2CCc3ccc(F)cc32)CC1
IC50 [2]: 18 nM

O=C(Nc1nc2c(s1)CCCC2)N1CCC(N2CCc3ccc(F)cc32)CC1
IC50 [2]: 76 nM

Cc1csc(NC(=O)N2CCC(N3CCc4ccc(F)cc43)CC2)n1
IC50 [2]: 21 nM

O=C(Nc1ncc(CCO)s1)N1CCC(N2CCc3ccc(F)cc32)CC1
IC50 [2]: 6 nM

Cc1cnc(NC(=O)N2CCC(N3CCc4ccc(F)cc43)CC2)s1
IC50 [2]: 108 nM
